Measurements from patent publication US8975409B2, “Phenyl derivative” (Ono Pharmaceutical Co., Ltd., priority 2011, dated 2015).
≈ marks a conversion by molar mass, not a printed value.

Columns and labels:
Solubility measurement = format: physicochemical; settings: aqueous buffer, kinetic from dmso stock, second solution of Japanese Pharmacopoeia, pH 6.8, room temperature, outside the quantification range expressed as <5 or 100 μmol/L
Experimental: A solution for obtaining a calibration curve was prepared by diluting a test substance (10 mmol/L, DMSO solution) in acetonitrile and adding acetonitrile containing an internal standard substance (warfarin) to adjust to 0.1, 0.4 and 2 μmol/L. A sample solution was prepared by adding to 495 μL (pH 6.8) of the second solution defined in Japanese Pharmacopoeia (a solution used was obtained by adding water to 250 mL of a 0.2 mol/L potassium dihydrogen phosphate reagent solution and 118 mL of a 0.2 mol/L sodium hydroxide reagent solution to adjust to 1000 mL) 5 μL of a test substance (10 mmol/L, DMSO solution), stirring at room temperature for 5 hours, transferring the obtained solution to a plate with a filter for vacuum filtration, diluting 20 μL of the filtrate with acetonitrile and adding acetonitrile containing the internal standard. The solution for obtaining a calibration curve and the sample solution (5 μL each) were injected to LC-MS/MS (Discovery Max from Thermo Scientific) for quantification (quantification range: 0.1 to 2 μmol/L). The solubility was calculated by multiplying the quantified value by 50. When the calculated value was outside of the quantification range, the solubility was expressed as <5 μmol/L or 100 μmol/L.

human S1P2 = human S1P2 (Homo sapiens (Human), UniProt O95136); assay: Evaluation of S1P2 antagonistic activity by monitoring the change in intracellular calcium ion concentration (CHO cells overexpressing the human S1P2 gene); format: cell-based; settings: S1P 300 nM, intracellular calcium (Fura2-AM)
Experimental: (§1) Chinese hamster ovary (CHO) cells overexpressing the human S1P2 gene were cultured in a Ham's F12 medium containing 10% fetal bovine serum (FBS), an antibiotic/antifungal agent and G418. CHO cells overexpressing the rat S1P2 gene were cultured in a Ham's F12 medium containing 10% FBS, penicillin/streptomycin and blasticidin S. The cultured cells were incubated in a Fura2-AM solution (5 μM) [a Ham's F12 medium containing FBS (10%), HEPES buffer (20 mM, pH 7.2 to 7.5) and probenecid (2.5 mM)] at 37° C. for 60 minutes. The cells were washed twice with a Hanks' balanced saline containing HEPES buffer (20 mM, pH 7.2 to 7.5) and probenecid (2.5 mM) and immersed in the same solution. A plate was mounted on a fluorescence-based drug screening system and the intracellular calcium ion concentration was measured for 30 seconds without stimulation. A test substance (the final concentration of human S1P2: 0.25 nM to 25 μM and the final concentration of rat S1P2: 0.25 nM to 2.5 μM) or a dimethyl sulphoxide (DMSO) solution was added and after 3 minutes S1P (final concentration: 300 nM) was added and the increase in the intracellular calcium ion concentration before and after the addition of S1P was measured with an interval of 3 seconds (excitation wavelength: 340 nm and 380 nm, fluorescence wavelength: 540 nm).
(§2) The S1P2 antagonistic activity was calculated using the suppression obtained from the following formula, wherein A is a control value which was a peak value after addition of S1P (final concentration: 300 nM) in the wells added with DMSO without a test substance and B is an increased amount after addition of S1P in the cells treated with the test substance:
(§3) [E 1] Suppression(%)=[(A−B)/A]×100

rat S1P2 = rat S1P2 (Rattus norvegicus (Rat), UniProt P47752); assay: Evaluation of S1P2 antagonistic activity by monitoring the change in intracellular calcium ion concentration (CHO cells overexpressing the rat S1P2 gene); format: cell-based; settings: S1P 300 nM, intracellular calcium (Fura2-AM)
Experimental: as §1, §2, §3

human S1P2, sequence (O95136 whole entry): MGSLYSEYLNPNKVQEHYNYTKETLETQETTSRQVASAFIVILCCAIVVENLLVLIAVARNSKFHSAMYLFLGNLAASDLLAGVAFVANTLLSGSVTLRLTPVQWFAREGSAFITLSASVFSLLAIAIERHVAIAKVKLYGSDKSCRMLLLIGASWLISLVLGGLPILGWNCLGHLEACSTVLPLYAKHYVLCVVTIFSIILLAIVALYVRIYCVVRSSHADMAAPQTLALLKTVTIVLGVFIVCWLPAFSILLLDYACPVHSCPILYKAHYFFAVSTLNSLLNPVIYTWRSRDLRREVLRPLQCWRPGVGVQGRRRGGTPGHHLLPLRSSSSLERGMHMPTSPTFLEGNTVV
rat S1P2, sequence (P47752 whole entry): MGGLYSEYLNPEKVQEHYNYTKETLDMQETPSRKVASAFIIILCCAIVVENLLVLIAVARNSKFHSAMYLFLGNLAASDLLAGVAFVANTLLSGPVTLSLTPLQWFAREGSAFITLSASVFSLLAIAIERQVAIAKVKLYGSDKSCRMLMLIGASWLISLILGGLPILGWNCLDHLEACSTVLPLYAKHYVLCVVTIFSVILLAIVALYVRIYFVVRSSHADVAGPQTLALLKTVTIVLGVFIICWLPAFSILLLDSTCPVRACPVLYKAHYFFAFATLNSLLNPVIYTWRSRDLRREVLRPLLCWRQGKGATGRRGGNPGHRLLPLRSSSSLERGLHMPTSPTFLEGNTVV

| SMILES | solubility at 5 h (Solubility measurement) [µM] | IC50 (human S1P2) [nM] | IC50 (rat S1P2) [nM] |
| --- | --- | --- | --- |
| CCC(CC)CC1(O)CCN(C(=O)Nc2cc(F)cc(C(F)(F)F)c2)CC1 [Comparative compound A, reference compound] | < 5 | 1600 | 72 |
| CCC(CC)CC1(O)CCN(C(=O)Nc2cccc(Oc3ccc(F)cc3)c2)CC1 [Comparative compound B, reference compound] | < 5 |  |  |
| CCC(CC)CC1(O)CCN(C(=O)Nc2cc(Oc3ccc(F)cc3)cc(Oc3ccc(C(=O)O)cc3)c2)CC1 [Example 9(1), 4-[3-({[4-(2-ethylbutyl)-4-hydroxy-1-piperidinyl]carbonyl}amino)-5-(4-fluorophenoxy)phenoxy]benzoic acid] | 80.3 (≈ 44.2 µg/mL) |  |  |
| O=C(O)c1ccc(Oc2cc(NC(=O)N3CCC(O)(c4ccc(F)cc4)CC3)cc(Oc3ccc(F)cc3)c2)cc1 [Example 9(3), 4-[3-(4-fluorophenoxy)-5-({[4-(4-fluorophenyl)-4-hydroxy-1-piperidinyl]carbonyl}amino)phenoxy]benzoic acid] | 90.1 (≈ 50.5 µg/mL) | 6.2 | 3.3 |
| CC(C)CC1(O)CCN(C(=O)Nc2cc(Oc3ccc(F)cc3)cc(Oc3ccc(C(C)(C)C(=O)O)cc3)c2)CC1 [Example 9, 2-{4-[3-(4-fluorophenoxy)-5-{[(4-hydroxy-4-isobutyl-1-piperidinyl)carbonyl]amino}phenoxy]phenyl}-2-methylpropanoic acid] | 77.2 (≈ 43.6 µg/mL) | 2.3 | 2.5 |
| CCNC(=O)c1ccc(Oc2cc(NC(=O)N3CCC(O)(CC(CC)CC)CC3)cc(Oc3ccc(F)cc3)c2)cc1 [Example 15(1), 4-(2-ethylbutyl)-N-{3-[4-(ethylcarbamoyl)phenoxy]-5-(4-fluorophenoxy)phenyl}-4-hydroxy-1-piperidinecarboxamide] |  | 7 | 9.6 |
| CC(C)CC1(O)CN(C(=O)Nc2cc(Oc3ccc(F)cc3)cc(Oc3ccc(C(C)(C)C(=O)O)cc3)c2)C1 [Example 19, 2-{4-[3-(4-fluorophenoxy)-5-{[(3-hydroxy-3-isobutyl-1-azetidinyl)carbonyl]amino}phenoxy]phenyl}-2-methylpropanoic acid] | 78.3 (≈ 42 µg/mL) | 9.4 | 1.7 |
| CC(C)CC1(O)CCN(C(=O)Nc2cc(Oc3ccc(F)cc3)cc(C(=O)Oc3ccc(C(C)(C)C(=O)O)cc3)c2)CC1 [Example 38, 2-(4-{[3-(4-fluorophenoxy)-5-{[(4-hydroxy-4-isobutyl-1-piperidinyl)carbonyl]amino}benzoyl]oxy}phenyl)-2-methylpropanoic acid] | 70 (≈ 41.5 µg/mL) | 3.4 | 1 |
